Results taken from the supplement of paper PMC10307832.

Tests used:
Test in all cases: relative viability (nuclei count vs DMSO), 5 days (fraction); higher = more cells survive
[1] = system: RERF-LC-KJ
Summary of the method: (§1)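 Values are medians from duplicate plates. Each reflects relative viability, defined as the nuclei count of treated wells over that of vehicle wells. Lung cancer cell lines in 1536-well plates were pin-tool dosed one day after seeding with one drug alone or with a fixed anchor-drug dose plus five library-drug doses (not always all listed) in √10 steps, then fixed, stained and imaged at 4× after 5 days.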

[2] = system: NCI-H460
Summary of the method: as §1

[3] = system: NCI-H647
Summary of the method: as §1

[4] = system: NCI-H2228
Summary of the method: as §1

[5] = system: NCI-H1734
Summary of the method: as §1

[6] = system: HOP-62
Summary of the method: as §1

[7] = system: A-427
Summary of the method: as §1

[8] = system: LC-2-ad
Summary of the method: as §1

[9] = system: NCI-H2347
Summary of the method: as §1

[10] = system: SW 1573
Summary of the method: as §1

[11] = system: NCI-H2126
Summary of the method: as §1

[12] = system: HCC-78
Summary of the method: as §1

[13] = system: NCI-H1975
Summary of the method: as §1

[14] = system: NCI-H1792
Summary of the method: as §1

[15] = system: SK-LU-1
Summary of the method: as §1

[16] = system: LXF-289
Summary of the method: as §1

[17] = system: HCC-15
Summary of the method: as §1

[18] = system: NCI-H1755
Summary of the method: as §1

[19] = system: NCI-H1915
Summary of the method: as §1

[20] = system: PC-3 [JPC-3]
Summary of the method: as §1

[21] = system: LOU-NH91
Summary of the method: as §1

[22] = system: NCI-H358
Summary of the method: as §1

`O=C(O)c1ccc(-c2c[nH]c3ncc(-c4ccccc4)cc23)cc1C1CCCC1` + C[C@@H](Oc1cc(-c2cnn(C3CCNCC3)c2)cnc1N)c1c(Cl)ccc(F)c1Cl [Crizotinib] (partner 1 µM) gave a relative viability ([1]; first compound 0.04 µM) of 0.795, a relative viability ([1]; first compound 0.1265 µM) of 0.851 and a relative viability ([1]; first compound 0.4 µM) of 0.823. It also gave a relative viability ([1]; first compound 1.265 µM) of 0.766, a relative viability ([2]; first compound 0.04 µM) of 0.872 and a relative viability ([2]; first compound 0.1265 µM) of 1.06. It also gave a relative viability ([2]; first compound 0.4 µM) of 0.83, a relative viability ([2]; first compound 1.265 µM) of 0.864 and a relative viability ([3]; first compound 0.04 µM) of 1.01. The relative viability ([3]; first compound 0.1265 µM) was 1.08, the relative viability ([3]; first compound 0.4 µM) was 0.987 and the relative viability ([3]; first compound 1.265 µM) was 0.77. The relative viability ([4]; first compound 0.04 µM) was 0.62, the relative viability ([4]; first compound 0.1265 µM) was 0.556 and the relative viability ([4]; first compound 0.4 µM) was 0.469. For the same compound, the relative viability ([4]; first compound 1.265 µM) was 0.292, the relative viability ([5]; first compound 0.04 µM) was 0.752 and the relative viability ([5]; first compound 0.1265 µM) was 0.705. It also gave a relative viability ([5]; first compound 0.4 µM) of 0.601, a relative viability ([5]; first compound 1.265 µM) of 0.543 and a relative viability ([6]; first compound 0.04 µM) of 0.902. For the same compound, the relative viability ([6]; first compound 0.1265 µM) was 0.901, the relative viability ([6]; first compound 0.4 µM) was 0.904 and the relative viability ([6]; first compound 1.265 µM) was 0.497. The relative viability ([7]; first compound 0.04 µM) was 0.941, the relative viability ([7]; first compound 0.1265 µM) was 0.845 and the relative viability ([7]; first compound 0.4 µM) was 0.86. For the same compound, the relative viability ([7]; first compound 1.265 µM) was 0.852, the relative viability ([8]; first compound 0.04 µM) was 0.496 and the relative viability ([8]; first compound 0.1265 µM) was 0.452. For the same compound, the relative viability ([8]; first compound 0.4 µM) was 0.412, the relative viability ([8]; first compound 1.265 µM) was 0.364 and the relative viability ([9]; first compound 0.04 µM) was 0.621. The relative viability ([9]; first compound 0.1265 µM) was 0.707, the relative viability ([9]; first compound 0.4 µM) was 0.642 and the relative viability ([9]; first compound 1.265 µM) was 0.568. The relative viability ([10]; first compound 0.04 µM) was 0.769, the relative viability ([10]; first compound 0.1265 µM) was 0.892 and the relative viability ([10]; first compound 0.4 µM) was 0.862. The relative viability ([10]; first compound 1.265 µM) was 0.925, the relative viability ([11]; first compound 0.04 µM) was 1.04 and the relative viability ([11]; first compound 0.1265 µM) was 1.03. The relative viability ([11]; first compound 0.4 µM) was 0.995, the relative viability ([11]; first compound 1.265 µM) was 0.824 and the relative viability ([12]; first compound 0.04 µM) was 0.338. It also gave a relative viability ([12]; first compound 0.1265 µM) of 0.381, a relative viability ([12]; first compound 0.4 µM) of 0.328 and a relative viability ([12]; first compound 1.265 µM) of 0.293. The relative viability ([13]; first compound 0.04 µM) was 0.999, the relative viability ([13]; first compound 0.1265 µM) was 1.04 and the relative viability ([13]; first compound 0.4 µM) was 0.923. It also gave a relative viability ([13]; first compound 1.265 µM) of 0.767, a relative viability ([14]; first compound 0.04 µM) of 0.959 and a relative viability ([14]; first compound 0.1265 µM) of 0.994. It also gave a relative viability ([14]; first compound 0.4 µM) of 1.03, a relative viability ([14]; first compound 1.265 µM) of 0.891 and a relative viability ([15]; first compound 0.04 µM) of 0.927. For the same compound, the relative viability ([15]; first compound 0.1265 µM) was 0.901, the relative viability ([15]; first compound 0.4 µM) was 0.719 and the relative viability ([15]; first compound 1.265 µM) was 0.682. The relative viability ([16]; first compound 0.04 µM) was 0.741, the relative viability ([16]; first compound 0.1265 µM) was 0.772 and the relative viability ([16]; first compound 0.4 µM) was 0.594. For the same compound, the relative viability ([16]; first compound 1.265 µM) was 0.285, the relative viability ([17]; first compound 0.04 µM) was 0.845 and the relative viability ([17]; first compound 0.1265 µM) was 0.79. The relative viability ([17]; first compound 0.4 µM) was 0.633, the relative viability ([17]; first compound 1.265 µM) was 0.339 and the relative viability ([18]; first compound 0.04 µM) was 0.883. For the same compound, the relative viability ([18]; first compound 0.1265 µM) was 0.924, the relative viability ([18]; first compound 0.4 µM) was 0.897 and the relative viability ([18]; first compound 1.265 µM) was 0.839. The relative viability ([19]; first compound 0.04 µM) was 0.96, the relative viability ([19]; first compound 0.1265 µM) was 0.898 and the relative viability ([19]; first compound 0.4 µM) was 0.67. For the same compound, the relative viability ([19]; first compound 1.265 µM) was 0.636, the relative viability ([20]; first compound 0.04 µM) was 0.963 and the relative viability ([20]; first compound 0.1265 µM) was 1.03. For the same compound, the relative viability ([20]; first compound 0.4 µM) was 0.968, the relative viability ([20]; first compound 1.265 µM) was 0.832 and the relative viability ([21]; first compound 0.04 µM) was 0.725. It also gave a relative viability ([21]; first compound 0.1265 µM) of 0.771, a relative viability ([21]; first compound 0.4 µM) of 0.702 and a relative viability ([21]; first compound 1.265 µM) of 0.782. The relative viability ([22]; first compound 0.04 µM) was 0.633, the relative viability ([22]; first compound 0.1265 µM) was 0.579 and the relative viability ([22]; first compound 0.4 µM) was 0.512. It also gave a relative viability ([22]; first compound 1.265 µM) of 0.352.
